Results from ChEMBL document CHEMBL5370585, “Exploration and Biological Evaluation of 1,3-Diamino-7H-pyrrol[3,2-f]quinazoline Derivatives as Dihydrofolate Reductase Inhibitors” (J Med Chem, 2023).
pIC50: −log10 of the molar value. Converted amounts (≈) assume the structure as drawn.

Columns and labels:
Staphylococcus aureus [1] = experiment: Antibacterial activity against methicillin-sensitive Staphylococcus aureus ATCC 25923 incubated for 16 to 18 hrs by CLSI based broth dilution method; type: functional; conditions: time 16-18 hrs
Staphylococcus aureus [2] = experiment: Antibacterial activity against vancomycin intermediate Staphylococcus aureus ATCC 700699 incubated for 16 to 18 hrs by CLSI based broth dilution method; type: functional; conditions: time 16-18 hrs
Staphylococcus aureus [3] = experiment: Antibacterial activity against methicillin-sensitive Staphylococcus aureus ATCC 29213 incubated for 16 to 18 hrs by CLSI based broth dilution method; type: functional; conditions: time 16-18 hrs
Acinetobacter baumannii [4] = experiment: Antibacterial activity against Acinetobacter baumannii ATCC 19606 assessed as reduction in microbial growth incubated for 16 to 18 hrs by CLSI based broth dilution method; type: functional; conditions: time 16-18 hrs
Escherichia coli [5] = experiment: Antibacterial activity against Escherichia coli ATCC BAA-2340 incubated for 16 to 18 hrs by CLSI based broth dilution method; type: functional; conditions: time 16-18 hrs
Acinetobacter baumannii [6] = experiment: Antibacterial activity against Acinetobacter baumannii 20-2 incubated for 16 to 18 hrs by CLSI based broth dilution method; type: functional; conditions: time 16-18 hrs
Enterococcus = experiment: Antibacterial activity against Vancomycin-resistant Enterococcus ATCC 51575 incubated for 16 to 18 hrs by CLSI based broth dilution method; type: functional; conditions: time 16-18 hrs
Staphylococcus aureus [7] = experiment: Antibacterial activity against methicillin-sensitive Staphylococcus aureus 15-1 incubated for 16 to 18 hrs by CLSI based broth dilution method; type: functional; conditions: time 16-18 hrs
Staphylococcus aureus [8] = experiment: Antibacterial activity against methicillin-resistant Staphylococcus aureus ATCC 33591 incubated for 16 to 18 hrs by CLSI based broth dilution method; type: functional; conditions: time 16-18 hrs
Enterococcus faecalis [9] = experiment: Antibacterial activity against Enterococcus faecalis EFA19-2 incubated for 16 to 18 hrs by CLSI based broth dilution method; type: functional; conditions: time 16-18 hrs
Escherichia coli [10] = experiment: Antibacterial activity against Escherichia coli ATCC 25922 incubated for 16 to 18 hrs by CLSI based broth dilution method; type: functional; conditions: time 16-18 hrs
Staphylococcus aureus [11] = experiment: Antibacterial activity against methicillin-resistant Staphylococcus aureus ATCC 43300 incubated for 16 to 18 hrs by CLSI based broth dilution method; type: functional; conditions: time 16-18 hrs
Staphylococcus aureus [12] = experiment: Antibacterial activity against methicillin-sensitive Staphylococcus aureus 15-2 incubated for 16 to 18 hrs by CLSI based broth dilution method; type: functional; conditions: time 16-18 hrs
Staphylococcus aureus [13] = experiment: Antibacterial activity against vancomycin intermediate Staphylococcus aureus ATCC 700788 incubated for 16 to 18 hrs by CLSI based broth dilution method; type: functional; conditions: time 16-18 hrs
Escherichia coli [14] = experiment: Antibacterial activity against Escherichia coli ECO 15-1 incubated for 16 to 18 hrs by CLSI based broth dilution method; type: functional; conditions: time 16-18 hrs
Enterococcus faecalis [15] = experiment: Antibacterial activity against Enterococcus faecalis EFA19-1 incubated for 16 to 18 hrs by CLSI based broth dilution method; type: functional; conditions: time 16-18 hrs
Acinetobacter baumannii [16] = experiment: Antibacterial activity against Acinetobacter baumannii ATCC 19606 incubated for 16 to 18 hrs by CLSI based broth dilution method; type: functional; conditions: time 16-18 hrs
HepG2 = experiment: Cytotoxicity against human HepG2 cells measured after 72 hrs by MTT assay; type: functional, cell-based; conditions: HepG2, 72 h
[17] = biological target: T1, Dihydrofolate reductase (Homo sapiens) (UniProt P00374); experiment: Inhibition of human DHFR at 1 uM incubated for 10 mins in presence of NADPH by colorimetry based analysis relative to control
T1 sequence (whole entry): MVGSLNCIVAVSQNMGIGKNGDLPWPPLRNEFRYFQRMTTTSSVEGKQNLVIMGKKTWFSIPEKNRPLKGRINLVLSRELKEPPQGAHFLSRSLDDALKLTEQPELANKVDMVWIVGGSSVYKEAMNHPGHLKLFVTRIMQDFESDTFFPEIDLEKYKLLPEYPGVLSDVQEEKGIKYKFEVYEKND

[18] = system: Staphylococcus epidermidis; experiment: Antibacterial activity against Staphylococcus epidermidis ATCC 12228 incubated for 16 to 18 hrs by CLSI based broth dilution method; type: functional; conditions: time 16-18 hrs
HGC-27 = experiment: Cytotoxicity against human HGC-27 cells measured after 72 hrs by MTT assay; type: functional, cell-based; conditions: HGC-27, 72 h
Enterococcus faecalis [19] = experiment: Antibacterial activity against Enterococcus faecalis ATCC 29212 incubated for 16 to 18 hrs by CLSI based broth dilution method; type: functional; conditions: time 16-18 hrs
MCF7 = experiment: Cytotoxicity against human MCF7 cells measured after 72 hrs by MTT assay; type: functional, cell-based; conditions: MCF7, 72 h
HCT-116 = experiment: Cytotoxicity against human HCT-116 cells measured after 72 hrs by MTT assay; type: functional, cell-based; conditions: HCT-116, 72 h
Staphylococcus aureus [20] = experiment: Antibacterial activity against Staphylococcus aureus ATCC 29213 incubated for 16 to 18 hrs by CLSI based broth dilution method; type: functional; conditions: time 16-18 hrs
Pseudomonas aeruginosa = experiment: Antibacterial activity against Pseudomonas aeruginosa ATCC 27853 incubated for 16 to 18 hrs by CLSI based broth dilution method; type: functional; conditions: time 16-18 hrs
Klebsiella pneumoniae [21] = experiment: Antibacterial activity against Klebsiella pneumoniae ATCC 700603 assessed as reduction in microbial growth incubated for 16 to 18 hrs by CLSI based broth dilution method; type: functional; conditions: time 16-18 hrs
Klebsiella pneumoniae [22] = experiment: Antibacterial activity against Klebsiella pneumoniae 15-1 assessed as reduction in microbial growth incubated for 16 to 18 hrs by CLSI based broth dilution method; type: functional; conditions: time 16-18 hrs
Acinetobacter baumannii [23] = experiment: Antibacterial activity against Acinetobacter baumannii 20-1 incubated for 16 to 18 hrs by CLSI based broth dilution method; type: functional; conditions: time 16-18 hrs
[24] = Metabolic stability in mouse liver microsomes assessed as hepatic clearance at 1 uM measured upto 60 mins in presence of NADPH by LC-MS/MS analysis; type: ADME, Microsome; conditions: 1 h
[25] = Metabolic stability in mouse liver microsomes assessed as intrinsic clearance at 1 uM measured upto 60 mins in presence of NADPH by LC-MS/MS analysis; type: ADME, Microsome; conditions: read-out: CLH

| Structure (SMILES) | MIC (Escherichia coli [10]) | MIC (Staphylococcus aureus [11]) | MIC (Acinetobacter baumannii [16]) | pIC50 (HepG2) | inhibition [17] | MIC [18] | pIC50 (HGC-27) | MIC (Enterococcus faecalis [19]) | pIC50 (MCF7) | pIC50 (HCT-116) | MIC (Staphylococcus aureus [20]) | other results |
| --- | --- | --- | --- | --- | --- | --- | --- | --- | --- | --- | --- | --- |
| C[C@H]1COc2c(N3CCN(C)CC3)c(F)cc3c(=O)c(C(=O)O)cn1c23 [LEVOFLOXACIN ANHYDROUS] | ≤ 0.03 µg/mL | 0.25 µg/mL (≈ 0.692 µM) | – | – | – | – | – | – | – | – | – | MIC (Staphylococcus aureus [1]): 0.25 µg/mL (≈ 0.692 µM); MIC (Staphylococcus aureus [2]): 64 µg/mL (≈ 177 µM); MIC (Staphylococcus aureus [3]): 0.25 µg/mL (≈ 0.692 µM); MIC (Acinetobacter baumannii [4]): 0.25 µg/mL; MIC (Escherichia coli [5]): 32 µg/mL (≈ 88.6 µM); MIC (Acinetobacter baumannii [6]): ≤ 0.03 µg/mL; MIC (Enterococcus): 1 µg/mL (≈ 2.77 µM); MIC (Staphylococcus aureus [7]): 16 µg/mL (≈ 44.3 µM); MIC (Staphylococcus aureus [8]): 0.25 µg/mL (≈ 0.692 µM); MIC (Enterococcus faecalis [9]): 2 µg/mL (≈ 5.53 µM); MIC (Staphylococcus aureus [12]): 64 µg/mL (≈ 177 µM); MIC (Staphylococcus aureus [13]): 32 µg/mL (≈ 88.6 µM); MIC (Escherichia coli [14]): 8 µg/mL (≈ 22.1 µM); MIC (Enterococcus faecalis [15]): 1 µg/mL (≈ 2.77 µM) |
| Nc1nc(N)c2c(ccc3c2ccn3Cc2cc3ccccc3o2)n1 | 0.25 µg/mL (≈ 0.759 µM) | 0.25 µg/mL (≈ 0.759 µM) | 32 µg/mL (≈ 97.2 µM) | 5.97 | 29.1% | ≤ 0.004 µg/mL | 6.23 | 0.25 µg/mL (≈ 0.759 µM) | 6.00 | 5.32 | 0.25 µg/mL (≈ 0.759 µM) | – |
| Nc1nc(N)c2c(ccc3c2ccn3Cc2ccc3sccc3c2)n1 | 0.25 µg/mL (≈ 0.724 µM) | 0.03 µg/mL (≈ 0.0868 µM) | 4 µg/mL (≈ 11.6 µM) | 6.28 | 87% | ≤ 0.004 µg/mL | 6.25 | 0.06 µg/mL (≈ 0.174 µM) | 6.29 | 5.06 | 0.06 µg/mL (≈ 0.174 µM) | – |
| Nc1nc(N)c2c(ccc3c2ccn3Cc2cccc3cccnc23)n1 | 0.5 µg/mL (≈ 1.47 µM) | ≤ 0.03 µg/mL | 2 µg/mL (≈ 5.88 µM) | 5.91 | 38.7% | 1 µg/mL (≈ 2.94 µM) | 5.77 | 0.06 µg/mL (≈ 0.176 µM) | 5.84 | < 5.00 | 0.25 µg/mL (≈ 0.734 µM) | MIC (Staphylococcus aureus [1]): ≤ 0.03 µg/mL; MIC (Staphylococcus aureus [2]): 0.06 µg/mL (≈ 0.176 µM); MIC (Staphylococcus aureus [3]): ≤ 0.03 µg/mL; MIC (Pseudomonas aeruginosa): > 64 µg/mL; MIC (Acinetobacter baumannii [4]): 2 µg/mL; MIC (Escherichia coli [5]): > 64 µg/mL; MIC (Acinetobacter baumannii [6]): 2 µg/mL (≈ 5.88 µM); MIC (Enterococcus): ≤ 0.03 µg/mL; MIC (Staphylococcus aureus [7]): ≤ 0.03 µg/mL; MIC (Staphylococcus aureus [8]): ≤ 0.03 µg/mL; MIC (Enterococcus faecalis [9]): ≤ 0.03 µg/mL; MIC (Klebsiella pneumoniae [21]): 16 µg/mL; MIC (Staphylococcus aureus [12]): ≤ 0.03 µg/mL; MIC (Staphylococcus aureus [13]): ≤ 0.03 µg/mL; MIC (Escherichia coli [14]): > 64 µg/mL; MIC (Klebsiella pneumoniae [22]): 16 µg/mL; MIC (Enterococcus faecalis [15]): ≤ 0.03 µg/mL; MIC (Acinetobacter baumannii [23]): 64 µg/mL (≈ 188 µM) |
| Nc1nc(N)c2c(ccc3c2ccn3Cc2nc3ccc(C(=O)O)cc3s2)n1 | > 8 µg/mL | > 8 µg/mL | > 32 µg/mL | 5.66 | 80.6% | 0.5 µg/mL (≈ 1.28 µM) | 6.05 | > 8 µg/mL | 5.09 | 5.80 | 8 µg/mL (≈ 20.5 µM) | – |
| Nc1nc(N)c2c(ccc3c2cc(-c2ccccc2)n3Cc2nc3ccccc3s2)n1 | > 128 µg/mL | > 128 µg/mL | > 128 µg/mL | < 6.00 | 17.3% | 64 µg/mL (≈ 151 µM) | < 6.00 | 32 µg/mL (≈ 75.7 µM) | < 6.00 | < 6.00 | > 128 µg/mL | – |
| COc1ccc2c(c1)[C@]13CCCC[C@@H]1[C@H](C2)N(C)CC3 [DEXTROMETHORPHAN] | – | – | – | – | – | – | – | – | – | – | – | CLH [24]: 77 mL/min/kg; microsomal CLint at 1 µM [25]: 135 µL/min/mg |
| Cc1cc2c3c(N)nc(N)nc3ccc2n1Cc1cccc2scnc12 | > 8 µg/mL | 1 µg/mL (≈ 2.77 µM) | 8 µg/mL (≈ 22.2 µM) | 6.60 | 99.4% | ≤ 0.004 µg/mL | 5.35 | 2 µg/mL (≈ 5.55 µM) | 6.35 | < 5.00 | 1 µg/mL (≈ 2.77 µM) | – |
| Nc1nc(N)c2c(ccc3c2ccn3Cc2cccc3sc(N)nc23)n1 | 0.5 µg/mL (≈ 1.38 µM) | 0.125 µg/mL (≈ 0.346 µM) | 32 µg/mL (≈ 88.5 µM) | 6.59 | 77.4% | ≤ 0.004 µg/mL | 5.75 | 0.25 µg/mL (≈ 0.692 µM) | 6.10 | 5.24 | 0.25 µg/mL (≈ 0.692 µM) | – |
